From US20260137701A1, “CHOLESTENOIC ACID (CA) AND A SULFATED DERIVATIVE THEREOF, 3[BETA]-SULFATE-5-CHOLESTENOIC ACID (CA3S), AS ENDOGENOUS EPIGENETIC REGULATORS” (priority 2022, published 2026)
Several values for one entry are separate records, joined by “and”; a condition that tells them apart may be missing. Equal entries are not always repeated.

Test system: HepG-2 cells
Experiment: Whole genome bisulfite sequencing (WGBS), differentially methylated regions
Type: cell-based, human
Details: for number of DMRs, whole genome, hyper-methylated / number of DMRs, whole genome, hypo-methylated / number of DMRs, whole genome, total: 20 μM CA vs vehicle
Procedure: After culturing HepG-2 cells in DMEM medium with HG for 72 hours followed by treating with 20 μM CA for 0, 3, 6, 12, and 24 hours, genomic DNA from 5×10^7 cells were extracted using QIAamp® DNA Mini Kit (QIAGEN, Hilden, Germany). Each sample, 6 μg, was sent to CD Genomics Co., Ltd (New York, USA) for analysis of WGBS. Total RNA was isolated using the Promega SV total RNA isolation system (Madison, WI, USA) with DNase treatment. Each sample, 2 μg, were sent to CD Genomics Co., Ltd (New York, USA) for analysis of RNA sequencing. The same samples, 2 μg, was used for the first-strand cDNA synthesis as recommended by the manufacturer (Invitrogen, Carlsbad, CA). RT-qPCR was performed using SYBR Green as the indicator on ABI 7500 Fast Real-Time PCR System (Applied Biosystems, Foster City, CA). Amplifications of j-actin or GAPDH were used as internal controls. Relative messenger RNA (mRNA) expression was quantified with the comparative cycle threshold (Ct) method using a sutiable primer set and was expressed as 2-ΔΔCt as described previously.
Each sample, 1 μg of genomic DNA was fragmented by sonication to a mean size of approximately 200-400 bp, and subsequently used for WGBS library construction using Acegen Bisulfite-Seq Library Prep Kit (Acegen) following the manufacturer's instructions. The methylated adapter-ligated DNAs were purified using 0.8×Agencourt AMPure™ XP magnetic beads and subjected to bisulfite conversion by ZYMO EZ DNA Methylation-Gold™ Kit (Zymo Research Corporation, CA, USA). The converted DNAs were then amplified using 25 μl KAPA HiFi™ HotStart Uracil+ ReadyMix (2×) and 8-bp index primers with a final concentration of 1 μM each. The constructed WGBS libraries were then analyzed by Agilent 2100 Bioanalyzer and quantified by a Qubit fluorometer with Quant-iT™ dsDNA HS Assay Kit (Invitrogen), and finally sequenced on Illumina® Hiseq X™ Ten sequencer. After the preparation of the library, Qubit 2.0 and Agilent 2100 were used respectively to detect the concentration of the library and the Insert Size, and the effective concentration (>2 nM) of the library was quantitatively determined by Q-PCR to ensure the library quality.
Samples were sequenced using the Illumina® HiSeq sequencing platform. Raw data generated on the sequencing platform contained a small percentage of low-quality data, which was then filtered to get high-quality data. Bsmap software was used to perform alignments of bisulfite-treated reads to a reference genome (GRCh37). Metilene software was used to identify differentially methylated regions (DMRs). DAVID software (website located at david.ncifcrf.gov/) was used to test the statistical enrichment of DMR related genes in the Gene Ontology (GO) and Kyoto Encyclopedia of Genes and Genomes (KEGG) pathways.

CC(CCC[C@@H](C)[C@H]1CC[C@H]2[C@@H]3CC=C4C[C@@H](O)CC[C@]4(C)[C@H]3CC[C@]12C)C(=O)O (stereo partly drawn) [CA, 3β-hydroxy-5-cholestenoic acid] was tested, and the “number of DMRs, whole genome, hyper-methylated” value (3 hours) was 11,818, the “number of DMRs, whole genome, hypo-methylated” value (3 hours) was 215,747 and the “number of DMRs, whole genome, total” value (3 hours) was 227,565. The “number of DMRs, whole genome, hyper-methylated” value (6 hours) was 10,537, the “number of DMRs, whole genome, hypo-methylated” value (6 hours) was 497,685 and the “number of DMRs, whole genome, total” value (6 hours) was 508,222. For the same compound, the “number of DMRs, whole genome, hyper-methylated” value (12 hours) was 14,658, the “number of DMRs, whole genome, hypo-methylated” value (12 hours) was 544,916 and the “number of DMRs, whole genome, total” value (12 hours) was 559,574. The “number of DMRs, whole genome, hyper-methylated” value (24 hours) was 8,808, the “number of DMRs, whole genome, hypo-methylated” value (24 hours) was 679,051 and the “number of DMRs, whole genome, total” value (24 hours) was 687,859. For the same compound, the “DMR (Methylation %) ADRA1A promoter region” value (20 μM CA, 3 h) was −30.28%, the “DMR (Methylation %) ADRA1B promoter region” value (20 μM CA, 3 h) was 0% and the “DMR (Methylation %) ADRA1 promoter region” value (20 μM CA, 3 h) was −30.28%. For the same compound, the “DMR (Methylation %) BCL6 promoter region” value (20 μM CA, 3 h) was −20.42%, the “DMR (Methylation %) CACNA1D promoter region” value (20 μM CA, 3 h) was −55.12% and the “DMR (Methylation %) CALML3 promoter region” value (20 μM CA, 3 h) was −27.06% and −27.05%. For the same compound, the “DMR (Methylation %) CALML4 promoter region” value (20 μM CA, 3 h) was −21.08%, the “DMR (Methylation %) CAMKK2 promoter region” value (20 μM CA, 3 h) was 0% and the “DMR (Methylation %) COX7B promoter region” value (20 μM CA, 3 h) was −30.9%. For the same compound, the “DMR (Methylation %) COX8A promoter region” value (20 μM CA, 3 h) was −25.87%, the “DMR (Methylation %) CPT1C promoter region” value (20 μM CA, 3 h) was −18.8% and the “DMR (Methylation %) CREB3L4 promoter region” value (20 μM CA, 3 h) was 0%. For the same compound, the “DMR (Methylation %) CYP1A1 promoter region” value (20 μM CA, 3 h) was −30.07%, the “DMR (Methylation %) ESR2 promoter region” value (20 μM CA, 3 h) was 0% and the “DMR (Methylation %) FBP1 promoter region” value (20 μM CA, 3 h) was 0%. For the same compound, the “DMR (Methylation %) FGF1 promoter region” value (20 μM CA, 3 h) was −54.6%, the “DMR (Methylation %) FGF8 promoter region” value (20 μM CA, 3 h) was −19.97% and the “DMR (Methylation %) FGFR2 promoter region” value (20 μM CA, 3 h) was −26.28%. The “DMR (Methylation %) LDHA promoter region” value (20 μM CA, 3 h) was −29.00%, the “DMR (Methylation %) LDHAL6A promoter region” value (20 μM CA, 3 h) was 0% and the “DMR (Methylation %) LDHC promoter region” value (20 μM CA, 3 h) was −20.18%. For the same compound, the “DMR (Methylation %) LEP promoter region” value (20 μM CA, 3 h) was 0%, the “DMR (Methylation %) MIR29A promoter region” value (20 μM CA, 3 h) was −15.46% and the “DMR (Methylation %) MIRLET7B promoter region” value (20 μM CA, 3 h) was 0%. The “DMR (Methylation %) MTOR promoter region” value (20 μM CA, 3 h) was −20.34%, the “DMR (Methylation %) NTRK3 promoter region” value (20 μM CA, 3 h) was 0% and the “DMR (Methylation %) PDHA2 promoter region” value (20 μM CA, 3 h) was 0%. For the same compound, the “DMR (Methylation %) PDHB promoter region” value (20 μM CA, 3 h) was −21.86%, the “DMR (Methylation %) PHKG1 promoter region” value (20 μM CA, 3 h) was −15.73% and the “DMR (Methylation %) PPARG promoter region” value (20 μM CA, 3 h) was 0%. The “DMR (Methylation %) SDHA promoter region” value (20 μM CA, 3 h) was 0%, the “DMR (Methylation %) SDHB promoter region” value (20 μM CA, 3 h) was 0% and the “DMR (Methylation %) SPHK2 promoter region” value (20 μM CA, 3 h) was 0%. The “DMR (Methylation %) UQCRC1 promoter region” value (20 μM CA, 3 h) was −23.76%, the “DMR (Methylation %) VDAC2 promoter region” value (20 μM CA, 3 h) was −27.41% and the “number of DMRs in promoter region, hyper-methylated” value (20 μM CA, 3 hours) was 2,323. The “number of DMRs in promoter region, hypo-methylated” value (20 μM CA, 3 hours) was 12,431, the “number of DMRs in promoter region, total” value (20 μM CA, 3 hours) was 14,754 and the “DMR (Methylation %) ADRA1A promoter region” value (20 μM CA, 6 h) was −41.25%. For the same compound, the “DMR (Methylation %) ADRA1B promoter region” value (20 μM CA, 6 h) was −33.89%, the “DMR (Methylation %) ADRA1 promoter region” value (20 μM CA, 6 h) was −41.25% and the “DMR (Methylation %) BCL6 promoter region” value (20 μM CA, 6 h) was −43.30%. For the same compound, the “DMR (Methylation %) CACNA1D promoter region” value (20 μM CA, 6 h) was −69.06% and −69.10%, the “DMR (Methylation %) CALML3 promoter region” value (20 μM CA, 6 h) was −47.29% and the “DMR (Methylation %) CALML4 promoter region” value (20 μM CA, 6 h) was −31.79%. The “DMR (Methylation %) CAMKK2 promoter region” value (20 μM CA, 6 h) was −37.97%, the “DMR (Methylation %) COX7B promoter region” value (20 μM CA, 6 h) was −83.31% and the “DMR (Methylation %) COX8A promoter region” value (20 μM CA, 6 h) was −35.3%. The “DMR (Methylation %) CPT1A promoter region” value (20 μM CA, 6 h) was −41.69%, the “DMR (Methylation %) CPT1C promoter region” value (20 μM CA, 6 h) was −34.41% and the “DMR (Methylation %) CREB3L4 promoter region” value (20 μM CA, 6 h) was −36.38%. For the same compound, the “DMR (Methylation %) CYP1A1 promoter region” value (20 μM CA, 6 h) was −55.38%, the “DMR (Methylation %) ESR2 promoter region” value (20 μM CA, 6 h) was −33.80% and the “DMR (Methylation %) FBP1 promoter region” value (20 μM CA, 6 h) was −39.18%. The “DMR (Methylation %) FGF1 promoter region” value (20 μM CA, 6 h) was −37.79%, the “DMR (Methylation %) FGF8 promoter region” value (20 μM CA, 6 h) was −53.29% and the “DMR (Methylation %) FGFR2 promoter region” value (20 μM CA, 6 h) was −47.13%. The “DMR (Methylation %) LDHA promoter region” value (20 μM CA, 6 h) was −35.80%, the “DMR (Methylation %) LDHAL6A promoter region” value (20 μM CA, 6 h) was −38.96% and the “DMR (Methylation %) LDHC promoter region” value (20 μM CA, 6 h) was −31.45%. For the same compound, the “DMR (Methylation %) LEP promoter region” value (20 μM CA, 6 h) was −35.18%, the “DMR (Methylation %) MIR29A promoter region” value (20 μM CA, 6 h) was −32.98% and the “DMR (Methylation %) MIRLET7B promoter region” value (20 μM CA, 6 h) was −34.85%. For the same compound, the “DMR (Methylation %) MTOR promoter region” value (20 μM CA, 6 h) was −37.3%, the “DMR (Methylation %) NTRK3 promoter region” value (20 μM CA, 6 h) was −49.89% and the “DMR (Methylation %) PDHA2 promoter region” value (20 μM CA, 6 h) was −39.34%. The “DMR (Methylation %) PDHB promoter region” value (20 μM CA, 6 h) was −42.31%, the “DMR (Methylation %) PHKG1 promoter region” value (20 μM CA, 6 h) was −41.81% and the “DMR (Methylation %) PPARG promoter region” value (20 μM CA, 6 h) was −37.32%. The “DMR (Methylation %) SDHA promoter region” value (20 μM CA, 6 h) was −37.82%, the “DMR (Methylation %) SDHB promoter region” value (20 μM CA, 6 h) was −39.54% and the “DMR (Methylation %) SPHK2 promoter region” value (20 μM CA, 6 h) was −60.87%.
